In ChEMBL document CHEMBL1201862, “PubChem BioAssay data set” (2004):
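Test compounds were applied to cells in 96-well plates for 48 hours at 5 doses. GI50 is the concentration that inhibits growth by half.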 The source made the active and inactive calls. Cut-off read from the data, not from the text of the source: active = GI50 up to about 1.1 µM and inactive = higher. *1 amine or outer side, *2 acyl side, *3 side chain or, on linkers, in order; H or OH if unused. Where a SMILES comes first, the peptide text is derived from it. Bridges are numbered along the chain shown (N, C = ends). Roman numbers before positions name the chains, in order. [ ]: non-standard residue; d: D form. Actinocin(9to1) = Cc1c2oc3c(C)ccc(C(=O)[*:1])c3nc-2c(C(=O)[*:2])c(N)c1=O; NMeV = CN[CH](C(=O)O)C(C)C; Sar = CNCC(=O)O

What was measured:
Assay in all cases: NCI-60 cell line screen, 48 h
COLO 205 = system: COLO 205
MDA-MB-231 = system: MDA-MB-231
SNB-19 = system: SNB-19
SK-MEL-2 = system: SK-MEL-2
U-251 = system: U-251
SR = system: SR
786-0 = system: 786-0
CCRF-CEM = system: CCRF-CEM
A549 = system: A549
T47D = system: T47D
IGROV-1 = system: IGROV-1
RPMI-8226 = system: RPMI-8226
UACC-62 = system: UACC-62
SK-OV-3 = system: SK-OV-3
NCI-H460 = system: NCI-H460
MOLT-4 = system: MOLT-4
NCI-H522 = system: NCI-H522
HCC 2998 = system: HCC 2998
SF-268 = system: SF-268
K562 = system: K562
HOP-92 = system: HOP-92
SW-620 = system: SW-620
NCI-H226 = system: NCI-H226
SK-MEL-28 = system: SK-MEL-28
UO-31 = system: UO-31
SK-MEL-5 = system: SK-MEL-5
SNB-75 = system: SNB-75
TK-10 = system: TK-10
LOX IMVI = system: LOX IMVI
MCF7 = system: MCF7
HCT-15 = system: HCT-15
A498 = system: A498
NCI-H23 = system: NCI-H23
EKVX = system: EKVX
MDA-N = system: MDA-N
HCT-116 = system: HCT-116
OVCAR-8 = system: OVCAR-8
KM12 = system: KM12
OVCAR-5 = system: OVCAR-5
NCI/ADR-RES = system: NCI/ADR-RES
CAKI-1 = system: CAKI-1
HT-29 = system: HT-29
DU-145 = system: DU-145
RXF 393 = system: RXF 393
SF-539 = system: SF-539
SF-295 = system: SF-295
MDA-MB-435 = system: MDA-MB-435
M14 = system: M14
Hs-578T = system: Hs-578T
SN12C = system: SN12C
OVCAR-3 = system: OVCAR-3
PC-3 = system: PC-3
ACHN = system: ACHN
UACC-257 = system: UACC-257
BT-549 = system: BT-549
HOP-62 = system: HOP-62
Malme-3M = system: Malme-3M
HL-60 = system: HL-60
OVCAR-4 = system: OVCAR-4

## O=C(CCc1cc(O)cc(O)c1)NCCc1ccc(O)c(O)c1
COLO 205
  GI50: > 100000 nM (inactive)
MDA-MB-231
  GI50: > 100000 nM (inactive)
SNB-19
  GI50: > 100000 nM (inactive)
SK-MEL-2
  GI50: > 100000 nM (inactive)
U-251
  GI50: > 100000 nM (inactive)
SR
  GI50: > 100000 nM (inactive)
786-0
  GI50: > 100000 nM (inactive)
CCRF-CEM
  GI50: 17300 nM (inactive)
A549
  GI50: > 100000 nM (inactive)
T47D
  GI50: > 100000 nM (inactive)
IGROV-1
  GI50: > 100000 nM (inactive)
RPMI-8226
  GI50: > 100000 nM (inactive)
UACC-62
  GI50: > 100000 nM (inactive)
SK-OV-3
  GI50: > 100000 nM (inactive)
NCI-H460
  GI50: > 100000 nM (inactive)
MOLT-4
  GI50: > 100000 nM (inactive)
NCI-H522
  GI50: > 100000 nM (inactive)
HCC 2998
  GI50: > 100000 nM (inactive)
SF-268
  GI50: > 100000 nM (inactive)
K562
  GI50: > 10000 nM (inactive)
HOP-92
  GI50: > 100000 nM (inactive)
SW-620
  GI50: > 100000 nM (inactive)
NCI-H226
  GI50: > 100000 nM (inactive)
SK-MEL-28
  GI50: > 100000 nM (inactive)
UO-31
  GI50: > 100000 nM (inactive)
SK-MEL-5
  GI50: > 100000 nM (inactive)
SNB-75
  GI50: > 100000 nM (inactive)
TK-10
  GI50: > 100000 nM (inactive)
LOX IMVI
  GI50: > 100000 nM (inactive)
MCF7
  GI50: > 100000 nM (inactive)
HCT-15
  GI50: > 100000 nM
A498
  GI50: > 100000 nM (inactive)
NCI-H23
  GI50: > 100000 nM (inactive)
EKVX
  GI50: > 100000 nM (inactive)
MDA-N
  GI50: 36700 nM (inactive)
HCT-116
  GI50: > 100000 nM (inactive)
OVCAR-8
  GI50: > 100000 nM (inactive)
KM12
  GI50: > 100000 nM (inactive)
OVCAR-5
  GI50: > 100000 nM (inactive)
NCI/ADR-RES
  GI50: > 100000 nM (inactive)
CAKI-1
  GI50: > 100000 nM (inactive)
HT-29
  GI50: > 100000 nM (inactive)
DU-145
  GI50: > 100000 nM (inactive)
RXF 393
  GI50: > 100000 nM (inactive)
SF-539
  GI50: > 100000 nM (inactive)
SF-295
  GI50: > 100000 nM (inactive)
MDA-MB-435
  GI50: 21600 nM (inactive)
M14
  GI50: > 100000 nM (inactive)
Hs-578T
  GI50: > 100000 nM (inactive)
SN12C
  GI50: > 100000 nM (inactive)
OVCAR-3
  GI50: > 100000 nM (inactive)
PC-3
  GI50: > 100000 nM (inactive)
ACHN
  GI50: > 100000 nM (inactive)
UACC-257
  GI50: > 100000 nM (inactive)
BT-549
  GI50: > 100000 nM (inactive)
HOP-62
  GI50: > 100000 nM (inactive)

## Cc1c2oc3c(C)ccc(C(=O)NC4C(=O)NC(Cc5ccccc5)C(=O)N5CCCC5C(=O)N(C)CC(=O)N(C)C(C(C)C)C(=O)OC4C)c3nc-2c(C(=O)NC2C(=O)NC(Cc3ccccc3)C(=O)N3CCCC3C(=O)N(C)CC(=O)N(C)C(C(C)C)C(=O)OC2C)c(N)c1=O (stereo not drawn) (I: TFP[Sar][NMeV] / II: TFP[Sar][NMeV]; ester I:1-I:C, II:1-II:C; linker I:N-II:N via Actinocin(9to1); configuration not given here)
COLO 205
  GI50: < 1 nM (active)
MDA-MB-231
  GI50: 22 nM (active)
SK-MEL-2
  GI50: < 1 nM (active)
U-251
  GI50: < 1 nM (active)
SR
  GI50: < 1 nM (active)
Malme-3M
  GI50: < 1 nM (active)
786-0
  GI50: < 1 nM (active)
CCRF-CEM
  GI50: < 1 nM (active)
A549
  GI50: < 1 nM (active)
T47D
  GI50: < 1 nM (active)
IGROV-1
  GI50: < 1 nM (active)
RPMI-8226
  GI50: < 1 nM (active)
UACC-62
  GI50: < 1 nM (active)
SK-OV-3
  GI50: < 1 nM (active)
NCI-H460
  GI50: < 1 nM (active)
MOLT-4
  GI50: < 1 nM (active)
NCI-H522
  GI50: < 1 nM (active)
HCC 2998
  GI50: < 1 nM (active)
SF-268
  GI50: < 1 nM (active)
K562
  GI50: < 1 nM (active)
SW-620
  GI50: < 1 nM (active)
NCI-H226
  GI50: < 1 nM (active)
SK-MEL-28
  GI50: < 1 nM (active)
UO-31
  GI50: 3.54 nM (active)
SK-MEL-5
  GI50: < 1 nM (active)
SNB-75
  GI50: 5.77 nM (active)
TK-10
  GI50: 21 nM (active)
LOX IMVI
  GI50: < 1 nM (active)
MCF7
  GI50: < 1 nM (active)
HCT-15
  GI50: 29.6 nM
A498
  GI50: 2.04 nM (active)
NCI-H23
  GI50: < 1 nM (active)
EKVX
  GI50: 136 nM (active)
MDA-N
  GI50: 1.62 nM (active)
HCT-116
  GI50: < 1 nM (active)
OVCAR-8
  GI50: < 1 nM (active)
KM12
  GI50: < 1 nM (active)
OVCAR-5
  GI50: 4.84 nM (active)
NCI/ADR-RES
  GI50: 439 nM (active)
HL-60
  GI50: < 1 nM (active)
CAKI-1
  GI50: 1.51 nM (active)
HT-29
  GI50: < 1 nM (active)
DU-145
  GI50: < 1 nM (active)
RXF 393
  GI50: 13.5 nM (active)
SF-539
  GI50: 123 nM (active)
SF-295
  GI50: < 1 nM (active)
MDA-MB-435
  GI50: < 1 nM (active)
M14
  GI50: 10.5 nM (active)
Hs-578T
  GI50: 1.1 nM (active)
SN12C
  GI50: < 1 nM (active)
OVCAR-3
  GI50: < 1 nM (active)
PC-3
  GI50: < 1 nM (active)
ACHN
  GI50: < 1 nM (active)
UACC-257
  GI50: < 1 nM (active)
BT-549
  GI50: 10 nM (active)
HOP-62
  GI50: 11.9 nM (active)
OVCAR-4
  GI50: 17.1 nM (active)
